# Assay: Human HepG2 cell viability assay in 384 well format
# Type: toxicity, cell-based
# Parameters: dose 125 nL, time 70.5 hour; cytotoxicity at 70.5 h: concentration not given beside the values
# Conditions: HepG2 cells, read-out: Inhibition
row,SMILES,cytotoxicity at 70.5 h [%]
1,CC(C)(C)c1ccc(OCC(N)=O)c(CN2C[C@H]3C[C@H](O)C[C@H]3C2)c1,-7.47
2,Cc1nc(C)c(CN(C)C2CCN(C(=O)OC(C)(C)C)CC2)s1,-7.19
3,Cc1nc[nH]c1CN1CCOC(CCNC(=O)c2ccsc2)C1 (stereo not given),2.08
4,CC(NCCCC#N)c1ccc(-c2ccncc2)cc1 (stereo not given),14.3
5,Cc1nccc(CNC(=O)N2CCN(Cc3ccccc3)C[C@H]2C)n1,-8.68
6,CSCCC(NC(=O)c1nc(SC)ncc1Cl)C(=O)O (stereo not given),-0.19
7,Fc1cnc(N2CC[C@@H]3OC(COCc4cccnc4)CC[C@@H]32)nc1 (stereo not given in full),-4.57
8,Cn1cc(C(=O)NC2CCN(Cc3ccn(C)c(=O)c3)CC2)cn1,-14
9,O=C(c1cnccn1)N1CCO[C@H]2[C@H](OCc3cccnc3)CC[C@@H]21,-6.93
10,CCc1c(C(=O)N2CCNC(=O)C2)cnn1C(C)(C)C,-6.91
11,CC1CCN(CCNC(=O)c2ccccc2N2CCOCC2)CC1,-7.45
12,Cc1ccc(C(=O)NC2CCN(Cc3noc(C(C)(C)C)n3)CC2)s1,-14.3
13,CN1CCCC(CCCc2cccnc2)(C(N)=O)C1 (stereo not given),-3.41
14,Cc1ccc2nc(N3CCN(CC(=O)NC(C)C)CC3)cc(C)c2c1,-1.6
15,Cc1noc(C)c1C(=O)NCC1CCCCN1Cc1ccccc1 (stereo not given),-1.55
16,CC(C)c1ccc(N2CCc3onc(-c4ccc(F)c(F)c4)c3C2)nn1,-6.74
17,Cc1cccc(C(=O)NCCS(=O)(=O)Cc2ccccc2)c1,-8.95
18,C[C@@H]1CN(CCC(=O)N(C)Cc2ccccc2)CC[C@@]1(O)C1CCC1,21.4
19,CC(=O)Nc1ccc(CNC(=O)CNCc2snnc2C)cc1,15.4
20,Cc1nc(-c2cnn(C)c2)sc1C(=O)NCc1ccc(C)n1C,-2.82
21,CCn1cnnc1C1CCN(C(=O)c2ccccc2OC)CC1,-8.77
22,Cc1cc(NC2CCc3ncnn3C2)n2ncnc2n1 (stereo not given),-106
23,CN(C)Cc1cc(C2CCN(C(=O)C3CCCNC3)CC2)nn1C (stereo not given),-5.29

row,SMILES,cytotoxicity at 70.5 h [%]
1,COc1ncccc1CN1Cc2nccn2CC(CN2CCCC2)C1 (stereo not given),-2.53
2,CCc1cc(C(F)(F)F)c2c(C3CCCN(C(=O)COC)C3)noc2n1 (stereo not given),-4.44
3,NCC1Cc2cc(-c3cncc(C(=O)N4CCCCC4)n3)cc(F)c2O1 (stereo not given),-4.24
4,CCCC(=O)N1CCCCC1C(=O)Nc1ccc(-c2nnc[nH]2)cc1 (stereo not given),-5.35
5,CC(C(=O)Nc1sccc1C(N)=O)N(C)CCOc1ccccc1 (stereo not given),-20.6
6,Cc1nn(C)c2c(NCc3cccnc3)nc(C3CC3)nc12,-3.52
7,c1cnnc(NCC2CN(Cc3cccc4c3OCCO4)CCO2)c1 (stereo not given),-20.6
8,COc1cc(F)c(S(=O)(=O)N2CCN(C)Cc3ccccc32)cc1OC,-10.1
9,CSCC(CCO)NC(=O)Nc1ccc(C)cc1Br (stereo not given),0.54
10,CC(C)(CNCc1ccc(OCc2cscn2)cc1)C(N)=O,2.2
11,CN1CCC2(CC1)C(=O)N(c1cccnc1)c1ccc(F)cc12,-0.57
12,CC(C)n1cc(S(=O)(=O)N2CCCCCC2)cn1,-2.52
13,O=C(Cc1ccsc1)NCCc1ccoc1,-8.57
14,c1cnc(N2CC3(CCN(Cc4ccncc4)C3)C2)nc1,-6.13
15,Cc1n[nH]c(C2CN(C(=O)c3cc(Cl)c[nH]3)CCO2)n1 (stereo not given),-3.9
16,O=C(Cc1ccc(F)cc1)N1CCn2cc(Cn3cccn3)nc2C1,-1.99
17,COCCC(=O)N1CCCC1c1nccc(C)n1 (stereo not given),-12.1
18,CS(=O)(=O)NCCC1CCCCN1C(=O)NCCc1ccccc1 (stereo not given),17.9
19,Cc1cc(-c2cnc(C3CC3)nc2CN(C)C(=O)c2ccccn2)on1,-2.22
20,CC(C(=O)N1CCN(CCOc2ccccc2)CC1)n1cncn1 (stereo not given),9.32
21,Cc1ccc(C)c(S(=O)(=O)CCN2CCCC2Cn2cccn2)c1 (stereo not given),-7.12
22,c1cncc(C2CC3(CCN(c4cnccn4)CC3)c3ccccc32)c1 (stereo not given),-1.15
23,CC(C)C1CN(Cc2c[nH]cn2)CCCN1CC1CC1 (stereo not given),-17.8

row,SMILES,cytotoxicity at 70.5 h [%]
1,O=C(CCc1ccc(O)cc1)N1CCC(Cc2ccc(CO)cc2)C1 (stereo not given),-9.62
2,CN(Cc1ccncc1)C(=O)Nc1cnn(CC(N)=O)c1,-4.03
3,Cc1ccc2[nH]c(=O)cc(C(=O)NCCCn3nccc3C3CC3)c2c1,-16
4,c1cc(CO[C@@H]2CC[C@H]3[C@H]2OCCN3Cc2ccoc2)ccn1,-14.9
5,Cc1cnn(CC2CCCN2Cc2ncc(-c3ccccc3)o2)c1 (stereo not given),-18.8
6,CC(Cn1ccnc1)NC(=O)NCCN1CCc2ccccc2C1 (stereo not given),0.814
7,CC(C)C(=O)NS(=O)(=O)CCc1ccccc1,-12.8
8,CS(=O)(=O)NCCC(=O)NC1(c2ccc(F)cc2)CCCC1,-6.92
9,Cc1ccc(CN2CC[C@H]3CO[C@H](CN(C)Cc4ccco4)[C@H]3C2)s1,4.82
10,CC(C)N(C)C(=O)CN1C(=O)OC[C@@H]1c1ccccc1,0.286
11,O=C(NC1CCCC1)c1cnn2c(-c3ccco3)ccnc12,-8.37
12,COc1ccc(OCc2cc(C(=O)N3CC=CC3)n[nH]2)c(Cl)c1,-3
13,Cc1cnn(C2CN(CC(=O)NCc3ccccn3)C2)c1,16.5
14,CCC(C)N1Cc2c(C(=O)N3CCCC3)nn(C)c2C1 (stereo not given),-2.34
15,CC(C)CN(C)Cc1nc2c(cnn2C)c(=O)[nH]1,12.1
16,CS(=O)(=O)N1CCOCC2(CCN(c3cnccn3)CC2)C1,-7.29
17,O=C(NCC1OCCc2cn(CC3CCOCC3)nc21)c1ccsc1 (stereo not given),5
18,CNc1cc(C2CN(C(=O)c3cscn3)CCO2)nc(C)n1 (stereo not given),26
19,COCc1cccc(NCc2cccnc2)c1,-10.4
20,CC(C)n1ccc2cc(C(=O)Nc3nc[nH]n3)ccc21,-15.9
21,CCn1nc(C)c(CN(CCCN(C)C)Cc2ccccn2)c1C,21.3
22,CNc1cnc(CC2COCCN(Cc3cccc(C)n3)C2)cn1 (stereo not given),-2.94
23,c1cc(-c2nnc3sc(CCN4CCCC4)nn23)ccn1,-9.13

row,SMILES,cytotoxicity at 70.5 h [%]
1,CC(C)(CNc1cccc(Cl)c1)NC(=O)C1CCCN(CC(N)=O)C1 (stereo not given),-8.71
2,CC(Cn1cccn1)NCc1cnc(N2CCCC2)nc1 (stereo not given),-3.66
3,CN1C(=O)CC(c2cnn(C)c2)C12CCN(C(=O)c1ccncc1)CC2 (stereo not given),-6.57
4,Cc1cccc(CN2CC[C@@H]3O[C@@H](C(=O)N4CCN(C)CC4)C[C@@H]32)c1,-6.66
5,O=C(Nc1cccnc1N1CCSCC1)c1cc2c(s1)CCCCC2,-6.67
6,O=C(c1ccncc1)N(CCO)Cc1cc(Br)ccc1F,-10.4
7,COCC(O)CN(C)C(=O)c1cccc(-c2csc(C)n2)c1 (stereo not given),1.21
8,COCc1cc(NCCc2ccccn2)n2nccc2n1,29
9,Cc1ccccc1C(C#N)NC(=O)CCCOc1cccnc1 (stereo not given),-0.163
10,Cc1cc2ncn(C(=O)N3CCCC3)c2cc1C,-2.26
11,c1cnc(N2CCO[C@H]3CN(Cc4c[nH]cn4)C[C@H]32)cn1,-5.79
12,Cn1cnnc1C1CCCN(C(=O)COc2ccccc2Cl)C1 (stereo not given),-6.87
13,CC(=O)c1ccc(-c2cc(C(F)(F)F)cc(N(C)C)n2)cc1,-7.82
14,O=C(c1sccc1C1CC1)N1CCN(c2cnccn2)CC1,-11.8
15,Cc1nccn1-c1ccc(C(C)NCc2cc[nH]n2)cc1 (stereo not given),-0.399
16,CN(CC1Cc2ccccc2CN1C)C(=O)CSc1nccn1C (stereo not given),-8.61
17,CS(=O)(=O)NCC1CCCN(C(=O)COCc2ccccc2)C1 (stereo not given),-12.3
18,Cn1cc(C[C@H]2[C@H](O)CCN2C(=O)C2CCOCC2)cn1,-7.24
19,CCNC(=O)N1C[C@@H](NC(C)=O)[C@H](c2ccc(C)o2)C1,-2.82
20,Cc1ccc2c(c1)CN(C(=O)c1cccnc1)C(CN(C)C)CO2 (stereo not given),3.4
21,Cc1nc(-c2ccc(S(=O)(=O)N3CCSCC3)cc2)co1,-5.93
22,CCCNC(=O)[C@@H]1CCCN1[C@@H](C(=O)NC)C1CC1,-11.8
23,Cc1cc(C)nc(N2CCC(c3cccc(CCC(=O)O)n3)CC2)n1,-9.41

row,SMILES,cytotoxicity at 70.5 h [%]
1,Cc1nc(C2CCCN2C(=O)CCOCc2ccccc2)no1 (stereo not given),-8.94
2,Cc1nnc(NCc2ccc(N3CCC(CO)CC3)cc2)c(C#N)c1C,-1.7
3,c1cnc(C2CCCN(Cc3ccsc3)C2)cn1 (stereo not given),-6.09
4,CCOc1ccc(C(=O)N2Cc3cnc(CC(C)C)nc3C2)o1,-4.06
5,COc1cc2c(cc1CCC(=O)O)CCC2,17.1
6,O=C(Nc1ccccc1F)C1CSCN1C(=O)CCc1ccco1 (stereo not given),-8.52
7,O=C(CCc1nccs1)N1CCN(c2ccccc2F)CC1,34.9
8,CCNC(=O)c1nnc2ccc(N3CCOCC3)cc2n1,12.6
9,CC(Cn1cccn1)NCc1nc(-c2ccsc2)no1 (stereo not given),5.46
10,CCOc1ccccc1CCC(=O)Nc1c(C)nn(C)c1C,14.5
11,CS(=O)(=O)N1CCC(Nc2ccnc3ccc(Cl)cc23)CC1,-3.71
12,CCC(CO)Nc1nc(C(F)F)nc2ccccc12 (stereo not given),-11.3
13,Cc1ccc(C)c(CS(=O)(=O)CC(=O)NCCCOC(C)C)c1,-4.92
14,CC(C)CC(=O)N1CCN(C(=O)NC(C)C)CC2(CC(=O)N(C)C2)C1 (stereo not given),-18.5
15,CCOc1ccccc1C(=O)NCc1nncn1C1CC1,3.5
16,O=C(NCCn1ccc(-c2ccncc2)n1)c1ccc2c(c1)OCO2,1.76
17,COCCN(C)C(=O)Nc1cc2c(cc1SC)OCCO2,10.9
18,O=C(NCC1CC1)[C@H]1C[C@@H]2[C@@H](C1)OCCN2Cc1cccnc1,25
19,CCOCCC1(C(=O)N2CCCC(c3ncc[nH]3)C2)CCCC1 (stereo not given),-16.4
20,O=C(c1nnn(-c2ccc(F)cc2)n1)N1CCC(O)CC1,2.17
21,CN1CCN(c2nc(O)cc(Cc3ccccc3F)n2)CC1,-4.68
22,COC(=O)C(C)(C)NC(=O)C1CC(=O)N(C2CCCC2)C1 (stereo not given),-9.13
23,CCC(=O)N1CCN(C(=O)NCc2c(C)cc(C)cc2C)CC1,-11.6
